Measured values published in US11135234B2, “Effective aminoglycoside antibiotic for multidrug-resistant bacteria” (MICROBIAL CHEMISTRY RESEARCH FOUNDATION, priority 2015, dated 2021).
≈ marks a conversion by molar mass, not a printed value.

How the values were obtained:
[1] = test system: S. aureus RN4220; assay: MIC, agar plate dilution method, S. aureus RN4220; format: cell-based, Staphylococcus aureus; details: for MIC: Staphylococcus aureus, RN4220, S. aureus RN4220, Sensitive bacterium, read-out: minimal inhibitory concentration (MIC); for minimal inhibitory concentration (MIC): S. aureus RN4220, Sensitive bacterium
In short: (§1)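 Agar plate dilution per Japan Society of Chemotherapy standard; read-out = MIC in μg/mL.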

[2] = test system: S. aureus RN4220/pMS520; assay: MIC, agar plate dilution method, S. aureus RN4220/pMS520; format: cell-based, Staphylococcus aureus; details: for MIC: Staphylococcus aureus, MRSA, read-out: minimal inhibitory concentration (MIC), S. aureus RN4220/pMS520, MRSA; for minimal inhibitory concentration (MIC): S. aureus RN4220/pMS520, MRSA
In short: as §1

[3] = test system: S. aureus MF490; assay: MIC, agar plate dilution method, S. aureus MF490; format: cell-based, Staphylococcus aureus; details: for MIC: Staphylococcus aureus, MRSA, read-out: minimal inhibitory concentration (MIC); for minimal inhibitory concentration (MIC): S. aureus MF490, MRSA
In short: as §1

[4] = test system: E. faecium ATCC19434; assay: MIC, agar plate dilution method, E. faecium ATCC19434; format: cell-based, Enterococcus faecium; details: for MIC: Enterococcus faecium, ATCC19434, E. faecium ATCC19434, read-out: minimal inhibitory concentration (MIC); for minimal inhibitory concentration (MIC): E. faecium ATCC19434
In short: as §1

[5] = test system: E. coli JM109/pMW218; assay: MIC, agar plate dilution method, E. coli JM109/pMW218; format: cell-based, Escherichia coli; details: for MIC: Escherichia coli, JM109/PMW218, E. coli JM109/pMW218, Sensitive bacterium, read-out: minimal inhibitory concentration (MIC); for minimal inhibitory concentration (MIC): E. coli JM109/pMW218, Sensitive bacterium
In short: as §1

[6] = test system: K. pneumoniae ATCC BAA-1705; assay: MIC, agar plate dilution method, K. pneumoniae ATCC BAA-1705; format: cell-based, Klebsiella pneumoniae; details: for MIC: Klebsiella pneumoniae, ATCCBAA1705, K. pneumoniae ATCC BAA-1705, KPC-producing strain, read-out: minimal inhibitory concentration (MIC); for minimal inhibitory concentration (MIC): K. pneumoniae ATCC BAA-1705, KPC-producing strain
In short: as §1

[7] = test system: K. pneumoniae ATCC BAA-2146; assay: MIC, agar plate dilution method, K. pneumoniae ATCC BAA-2146; format: cell-based, Klebsiella pneumoniae; details: for MIC: Klebsiella pneumoniae, ATCCBAA2146, K. pneumoniae ATCC BAA-2146, NDM-producing strain, read-out: minimal inhibitory concentration (MIC); for minimal inhibitory concentration (MIC): K. pneumoniae ATCC BAA-2146, NDM-producing strain
In short: as §1

[8] = test system: A. baumannii ATCC BAA-1710; assay: MIC, agar plate dilution method, A. baumannii ATCC BAA-1710; format: cell-based, Acinetobacter baumannii; details: for MIC: Acinetobacter baumannii, ATCCBAA1710, A. baumannii ATCC BAA-1710, MDRA, read-out: minimal inhibitory concentration (MIC); for minimal inhibitory concentration (MIC): A. baumannii ATCC BAA-1710, MDRA
In short: as §1

[9] = test system: S. marcescens TH-0447; assay: MIC, agar plate dilution method, S. marcescens TH-0447; format: cell-based, Serratia marcescens; details: for MIC: Serratia marcescens, TH0447, S. marcescens TH-0447, AMK-resistant, read-out: minimal inhibitory concentration (MIC); for minimal inhibitory concentration (MIC): S. marcescens TH-0447, AMK-resistant
In short: as §1

[10] = test system: S. marcescens GN6944; assay: MIC, agar plate dilution method, S. marcescens GN6944; format: cell-based, Serratia marcescens; details: S. marcescens GN6944, GM-resistant; for MIC: Serratia marcescens, read-out: minimal inhibitory concentration (MIC)
In short: as §1

[11] = test system: P. aeruginosa PAO1; assay: MIC, agar plate dilution method, P. aeruginosa PAO1; format: cell-based, Pseudomonas aeruginosa; details: for MIC: Pseudomonas aeruginosa, PAO1, P. aeruginosa PAO1, Sensitive bacterium, read-out: minimal inhibitory concentration (MIC); for minimal inhibitory concentration (MIC): P. aeruginosa PAO1, Sensitive bacterium
In short: as §1

[12] = test system: P. aeruginosa PAO1/GN315; assay: MIC, agar plate dilution method, P. aeruginosa PAO1/GN315; format: cell-based, Pseudomonas aeruginosa; details: for MIC: Pseudomonas aeruginosa, read-out: minimal inhibitory concentration (MIC), P. aeruginosa PAO1/GN315, AMK-resistant; for minimal inhibitory concentration (MIC): P. aeruginosa PAO1/GN315, AMK-resistant
In short: as §1

[13] = test system: P. aeruginosa MSC17707; assay: MIC, agar plate dilution method, P. aeruginosa MSC17707; format: cell-based, Pseudomonas aeruginosa; details: for MIC: Pseudomonas aeruginosa, MSC17707, P. aeruginosa MSC17707, AMK-resistant, read-out: minimal inhibitory concentration (MIC); for minimal inhibitory concentration (MIC): P. aeruginosa MSC17707, AMK-resistant
In short: as §1

[14] = test system: P. aeruginosa MSC01035; assay: MIC, agar plate dilution method, P. aeruginosa MSC01035; format: cell-based, Pseudomonas aeruginosa; details: P. aeruginosa MSC01035, ABK-resistant; for MIC: Pseudomonas aeruginosa, read-out: minimal inhibitory concentration (MIC)
In short: as §1

Compound	MIC [1]	MIC [2]	MIC [3]	MIC [4]	MIC [5]	MIC [6]	MIC [7]	MIC [8]	MIC [9]	MIC [10]	MIC [11]	MIC [12]	MIC [13]	MIC [14]	minimal inhibitory concentration (MIC) [1]	minimal inhibitory concentration (MIC) [2]	minimal inhibitory concentration (MIC) [3]	minimal inhibitory concentration (MIC) [4]	minimal inhibitory concentration (MIC) [5]	minimal inhibitory concentration (MIC) [6]	also measured
CNC1C(O[C@H]2OC(CO)[C@@H](NC(CN)CN)[C@H](O)C2O)O[C@H]2CC(N)[C@@H](O[C@H]3CC[C@H](N)CC3N)OC2C1O (stereo partly shown) [Compound T2-d, 4″-N-(1,3-diaminopropan-2-yl)-5,6-dideoxyapramycin]	2 µg/mL (≈ 3.45 µM)	1 µg/mL (≈ 1.73 µM)	4 µg/mL (≈ 6.9 µM)	4 µg/mL (≈ 6.9 µM)	1 µg/mL (≈ 1.73 µM)	2 µg/mL (≈ 3.45 µM)	2 µg/mL (≈ 3.45 µM)	8 µg/mL (≈ 13.8 µM)	8 µg/mL (≈ 13.8 µM)	8 µg/mL (≈ 13.8 µM)	4 µg/mL (≈ 6.9 µM)	4 µg/mL (≈ 6.9 µM)	8 µg/mL (≈ 13.8 µM)	8 µg/mL (≈ 13.8 µM)							
CNC1C(O[C@H]2OC(CO)[C@@H](NC(=N)N)[C@H](O)C2O)O[C@H]2CC(N)[C@@H](O[C@H]3CC[C@H](N)CC3N)OC2C1O (stereo partly shown) [Compound T2-e, 4″-deamino-5,6-dideoxy-4″-guanidinoapramycin]	1 µg/mL (≈ 1.82 µM)	0.5 µg/mL (≈ 0.91 µM)	2 µg/mL (≈ 3.64 µM)	4 µg/mL (≈ 7.28 µM)	0.5 µg/mL (≈ 0.91 µM)	1 µg/mL (≈ 1.82 µM)	0.5 µg/mL (≈ 0.91 µM)	4 µg/mL (≈ 7.28 µM)	4 µg/mL (≈ 7.28 µM)	2 µg/mL (≈ 3.64 µM)	4 µg/mL (≈ 7.28 µM)	4 µg/mL (≈ 7.28 µM)	4 µg/mL (≈ 7.28 µM)	8 µg/mL (≈ 14.6 µM)							
CNC1C(OC2OC(CO)C(NC(=N)N)CC2O)OC2CC(N)C(OC3CC(O)C(N)CC3N)OC2C1O (stereo not shown) [Compound U4-a, 4″-deamino-5,3″-dideoxy-4″-guanidinoapramycin]															1 µg/mL (≈ 1.82 µM)	1 µg/mL (≈ 1.82 µM)	4 µg/mL (≈ 7.28 µM)	4 µg/mL (≈ 7.28 µM)	0.5 µg/mL (≈ 0.91 µM)	1 µg/mL (≈ 1.82 µM)	minimal inhibitory concentration (MIC) [7]: 0.5 µg/mL (≈ 0.91 µM); minimal inhibitory concentration (MIC) [8]: 8 µg/mL (≈ 14.6 µM); minimal inhibitory concentration (MIC) [9]: 4 µg/mL (≈ 7.28 µM); minimal inhibitory concentration (MIC) [10]: 2 µg/mL (≈ 3.64 µM); minimal inhibitory concentration (MIC) [11]: 4 µg/mL (≈ 7.28 µM); minimal inhibitory concentration (MIC) [12]: 4 µg/mL (≈ 7.28 µM); minimal inhibitory concentration (MIC) [13]: 8 µg/mL (≈ 14.6 µM); minimal inhibitory concentration (MIC) [14]: 8 µg/mL (≈ 14.6 µM)
CNCC(=O)N[C@@H]1C(CO)O[C@H](OC2O[C@H]3CC(N)[C@@H](O[C@@H]4C(N)C[C@@H](N)C(O)[C@H]4O)OC3C(O)C2NC)C(O)[C@H]1O (stereo partly shown) [Compound V1-b, 4″-N-sarcosylapramycin]	2 µg/mL (≈ 3.28 µM)	2 µg/mL (≈ 3.28 µM)	8 µg/mL (≈ 13.1 µM)	16 µg/mL (≈ 26.2 µM)	1 µg/mL (≈ 1.64 µM)	2 µg/mL (≈ 3.28 µM)	1 µg/mL (≈ 1.64 µM)	8 µg/mL (≈ 13.1 µM)	16 µg/mL (≈ 26.2 µM)	8 µg/mL (≈ 13.1 µM)	4 µg/mL (≈ 6.55 µM)	4 µg/mL (≈ 6.55 µM)	4 µg/mL (≈ 6.55 µM)	4 µg/mL (≈ 6.55 µM)							
CNC1C(O[C@H]2OC(CO)[C@@H](NC(=O)[C@H](C)N)[C@H](O)C2O)O[C@H]2CC(N)[C@@H](O[C@@H]3C(N)C[C@@H](N)C(O)[C@H]3O)OC2C1O (stereo partly drawn) [Compound V1-c, 4″-N-(L-alanyl)apramycin]															4 µg/mL (≈ 6.55 µM)	4 µg/mL (≈ 6.55 µM)	16 µg/mL (≈ 26.2 µM)	32 µg/mL (≈ 52.4 µM)	2 µg/mL (≈ 3.28 µM)	4 µg/mL (≈ 6.55 µM)	minimal inhibitory concentration (MIC) [7]: 2 µg/mL (≈ 3.28 µM); minimal inhibitory concentration (MIC) [8]: 8 µg/mL (≈ 13.1 µM); minimal inhibitory concentration (MIC) [9]: 16 µg/mL (≈ 26.2 µM); minimal inhibitory concentration (MIC) [10]: 8 µg/mL (≈ 13.1 µM); minimal inhibitory concentration (MIC) [11]: 16 µg/mL (≈ 26.2 µM); minimal inhibitory concentration (MIC) [12]: 8 µg/mL (≈ 13.1 µM); minimal inhibitory concentration (MIC) [13]: 8 µg/mL (≈ 13.1 µM); minimal inhibitory concentration (MIC) [14]: 8 µg/mL (≈ 13.1 µM)
